According to patent US12440493B2, “Combination therapy for treating cancer comprising substituted piperazines” (Eli Lilly and Company, priority 2020, dated 2025):
“And” between values parts separate entries of the source, which are not always exact repeats. Identical values can stand only once.

Legend:
[1] = system: IDH1(R132H) primary human AML cells; experiment: Bone marrow AML clearance (flow cytometry), human AML PDx models in NSG mice; format: in vivo; details: for Bone Marrow AML Clearance: % hCD33 + hCD45+ (% of white cells) / Bone Marrow AML Clearance: % hCD45+ (% of white cells): QD, PO, each line one animal
Procedure: Compounds and Formulation. For in vivo studies, each test article is prepared at an appropriate concentration with vehicle. […] Compound A is prepared fresh at the appropriate concentrations with vehicle every 7 days and stored at 4° C. between doses. […] Cytarabine is prepared fresh weekly by dilution with sterile saline from stock solution of Cytarabine (injection 20 mg/mL, (Pfizer injectables')). Azacitidine (Sigma, Lot #MKBR7212) is formulated in sterile water and is prepared fresh daily immediately before dosing. In vivo human AML PDx models. […] Two models are used in the studies: […] As needed, splenocytes from tumor-bearing mice are used to propagate and expand the models, as described. Each test article is prepared as described above at an appropriate concentration with vehicle to give animals the doses tested in this study at a dosing volume of 10 μL/gram body weight. Mice receiving Compound A (PO, QD) are treated at the indicated doses for the duration of the study. The combination agents are dosed as follows: […] Treated mice are assessed in comparison to vehicle treated and naïve (non-tumor bearing) control mice. Body weight is recorded twice per week. […] AML PDx model propagation. […] Spleens are processed and splenocytes isolated as described below. Two hundred μL per subject of the splenocyte prep is injected IV (intravenous, tail vein) into recipient NSG mice. […] Once engraftment is confirmed, the mice are monitored biweekly until ready to be put on study. […] Submandibular blood is collected. Spleen/Splenocyte Processing and Prep. After excision, a spleen is weighed, and […] is placed in a standard sterile 15 mL polypropylene conical tube containing PBS, and placed on ice. […] The spleen is placed in ice cold sterile PBS in a 15 mL collection tube. The spleen is removed from the collection tube and placed in a 100 micron 50 mL conical tube cell strainer (BD Falcon #352360). The spleen is processed by gentle rubbing of the spleen tissue against the surface of the cell strainer with the end of a 5 mL syringe plunger in a circular motion. The surface of the strainer is rinsed with 10 mL room temperature sterile DPBS (HyClone SH30028) 3 times during the process. […] The cell pellet is collected by centrifugation (300×g) and washed three times with 30 mL sterile DPBS. The cells are counted and resuspended in DPBS at the desired implant concentration. Bone Marrow Collection. […] Flow cytometry analysis of human white cells. Submandibular blood samples from in vivo studies are collected. Fluor-conjugated antibody stains are added according to the manufacturer's instructions (anti-human CD33-PE (clone WM53, BD Cat #555450), anti-human CD14-APC (clone MφpP9, BD Cat #340436), anti-human CD15-V450 (clone HI98, BD Cat #561584), anti-human CD117-BV421 (clone YB5.B8, BD Cat #562434), anti-human […]7 (clone ICRF44, BD Cat #557754), anti-human […]7 (clone HI30, BD Cat #557748), and anti-human CD3-FITC (clone SK7, BD Cat #340542)). The samples are incubated for 30 minutes at room temperature, protected from light. After the incubation, 1.5 mL 1×BD Lyse/Fix (37° C., (BD #558049)) is added to each sample and incubated for 12 minutes at room temperature. The tubes are centrifuged at 300×g for 7 minutes. BD Lyse/Fix solution is aspirated and the cell pellet washed with stain/wash buffer 3 times (1 wash step consisted of: pellet resuspended in 3 mL stain/wash buffer, centrifuged at 300×g, aspirated wash). Fixed cells are then resuspended in 300 to 400 μL stain/wash buffer. Samples are analyzed on a Becton Dickinson FACSVerse Flow cytometer (Cat #651155 Serial #Z6511550447) using standard flow cytometry principles and techniques. Samples are analyzed on the same day as they are stained and fixed. Population gating and data analysis of percent population are performed in the FACSuite software on the FACSVerse cytometer. Percent population values from the data analysis are plotted in Graphpad Prism or in JMP13. […]

2-HG production = experiment: Plasma 2-HG inhibition (LC-MS metabolite analysis in plasma of AML PDx model); format: in vivo, human; details: for % plasma 2-HG (treatment group value): vehicle 100%
[2] = 3.3 mg/kg Compound A, QD, PO, Table 1D, each line one animal
[3] = 3.3 mg/kg Compound A, QD, PO, Table 2D, each line one animal
[4] = plasma, B: 1 mg/kg Compound A, QD, PO, one line per animal
[5] = plasma, C: 10 mg/kg Compound A, one line per animal

Structure (SMILES): C=CC(=O)N1CCN([C@@H](CC2CC2)c2ccc([C@H](C)Nc3ncc4c(n3)N(CC)C(=O)OC4)cc2)CC1 [Compound A, 7-[[(1S)-1-[4-[(1S)-2-cyclopropyl-1-(4-prop-2-enoylpiperazin-1-yl)ethyl]phenyl]ethyl]amino]-1-ethyl-4H-pyrimido[4,5-d][1,3]oxazin-2-one]
- Bone Marrow AML Clearance: % hCD33 + hCD45+ (% of white cells) ([1]; 1 mg/kg Compound A): 87.74% and 92.23%
- Bone Marrow AML Clearance: % hCD45+ (% of white cells) ([1]; 1 mg/kg Compound A): 88.34% and 92.36%
- Bone Marrow AML Clearance: % hCD33 + hCD45+ (% of white cells) ([1]; 3.3 mg/kg Compound A, Table 1C): 98.6% and 44.3% and 98.54% and 86.55%
- Bone Marrow AML Clearance: % hCD45+ (% of white cells) ([1]; 3.3 mg/kg Compound A, Table 1C): 98.36% and 43.99% and 98.15% and 86.21%
- Bone Marrow AML Clearance: % hCD33 + hCD45+ (% of white cells) ([1]; 3.3 mg/kg Compound A, Table 2C): 72.73% and 84.3% and 99.41% and 91.97%
- Bone Marrow AML Clearance: % hCD45+ (% of white cells) ([1]; 3.3 mg/kg Compound A, Table 2C): 72.6% and 84.16% and 99.3% and 91.11%
- Bone Marrow AML Clearance: % hCD33 + hCD45+ (% of white cells) ([1]; 10 mg/kg Compound A): 8.65% and 4.27% and 1.09% and 0.78% and 1.84%
- Bone Marrow AML Clearance: % hCD45+ (% of white cells) ([1]; 10 mg/kg Compound A): 8.66% and 4.28% and 1.11% and 0.78% and 1.85%
- % human AML cells in bone marrow (of white cells; lower = more clearance) ([1]; group B: 1 mg Compound A, vehicle 86%): 90%
- % human AML cells in bone marrow (of white cells; lower = more clearance) ([1]; group B: Compound A (3.3 mg/kg), azacitidine study, vehicle 94%): 87%
- % human AML cells in bone marrow (of white cells; lower = more clearance) ([1]; group B: Compound A (3.3 mg/kg), cytarabine study, vehicle 94%): 78%
- % human AML cells in bone marrow (of white cells; lower = more clearance) ([1]; group C: 10 mg Compound A, vehicle 86%): 2.3%
- % Inhibition of 2-HG (plasma) (2-HG production; [2]): 92.715% and 97.316% and 100.207% and 99.855% and 92.797% and 94.779%
- Naive Subtracted 2-HG (plasma) (2-HG production; [2]): 0.134 µM and 0.809 µM and 0.298 µM and -0.023 µM and 0.016 µM and 0.799 µM and 0.579 µM
- Plasma 2-HG (2-HG production; [2]): 1.042 µM and 1.717 µM and 1.206 µM and 0.885 µM and 0.924 µM and 1.708 µM and 1.488 µM
- % Inhibition of 2-HG (plasma) (2-HG production; [3]): 118.011% and 98.032% and 112.937% and 127.909% and 122.77% and 118.689% and 111.758%
- Naive Subtracted 2-HG (plasma) (2-HG production; [3]): -1.236 µM and 0.135 µM and -0.888 µM and -1.915 µM and -1.562 µM and -1.282 µM and -0.807 µM
- Plasma 2-HG (2-HG production; [3]): 1.701 µM and 3.072 µM and 2.049 µM and 1.022 µM and 1.374 µM and 1.654 µM and 2.13 µM
- inhibition at 10 mg/kg (2-HG production; NSG mice, plasma, C: 10 mg/kg Compound A, one line per animal): 84%
- inhibition at 3.3 mg/kg (2-HG production; NSG mice, po, 3.3 mg/kg Compound A, QD, Table 1D, each line one animal): 98.8%
- inhibition at 1 mg/kg (2-HG production; NSG mice, po, plasma, B: 1 mg/kg Compound A, QD, PO, one line per animal): 54.7%
- % plasma 2-HG (treatment group value) (2-HG production; group B: 1 mg Compound A): 38%
- % plasma 2-HG (treatment group value) (2-HG production; group B: Compound A (3.3 mg/kg), azacitidine study): −15%
- % plasma 2-HG (treatment group value) (2-HG production; group B: Compound A (3.3 mg/kg), cytarabine study): 3.4%
- % plasma 2-HG (treatment group value) (2-HG production; group C: 10 mg Compound A): 9.2%
- 2-HG (2-HG production; [4]): 9.264 µM and 6.489 µM and 7.318 µM and 8.683 µM and 8.938 µM
- % Inhibition of 2-HG (2-HG production; [4]): 73.015% and 67.532% and 58.504% and 56.818%
- Naive Subtracted 2-HG (2-HG production; [4]): 6.855 µM and 4.08 µM and 4.909 µM and 6.274 µM and 6.529 µM
- 2-HG (2-HG production; [5]): 4.821 µM and 4.395 µM and 4.286 µM and 3.033 µM and 2.863 µM
- % Inhibition of 2-HG (2-HG production; [5]): 86.867% and 87.584% and 95.874% and 97%
- Naive Subtracted 2-HG (2-HG production; [5]): 2.412 µM and 1.986 µM and 1.877 µM and 0.624 µM and 0.454 µM
